In patent US8697841B2, “Peptide for transmigration across blood brain barrier and delivery systems comprising the same” (Industrial Technology Research Institute, priority 2009, dated 2014):

Experiment: Hot plate test (PD study)
Type: in vivo, mice
Details: 7.5 mg/kg EM-1, intravenous injection
Method: Hot-plate test was used to evaluate thermal pain reflexes due to footpad contact with a heated surface. The response of the animals to the hot plate reflects a nociceptive behavior, which involves complex circuit integration in the central nervous system.
Briefly, the mice were individually placed on a […] hot plate apparatus and the time until onset of licking the hindlimb was measured. Basal latency was approximate 2 sec, and cut-off time in the absence of a response (T2) was set at 45 sec. The inhibition of the hindlimb-licking responses were expressed as percent maximal possible effect (% MPE) which was calculated as [(T1−T0)/(T2−T0)]×100, where T0 and T1 were the hot-plate latencies before and after intravenous injection of the EM-1 formulations. The hot-plate latency was determined 10, 20, 30, 60, 120, 180 and 210 min after the formulation injection (7.5 mg/kg EM-1), and the AUC (the area under a curve) values for MPE % versus time (min) plots were calculated.

## endomorphin-1 [EM-1]
  analgesic effect (nociceptive responses) in hot-plate test: did not reduce the nociceptive responses
